Measurements taken from ChEMBL document CHEMBL6134881, “From Natural Products to Small Molecules: Recent Advancements in Anti-MRSA Therapeutics” (ACS Med Chem Lett, 2025).
In brackets after ≈: the same amount, converted by molar mass.

test system: Staphylococcus aureus; test: Antibacterial activity against Staphylococcus aureus ATCC 25923 assessed as reduction in bacterial growth incubated for 24 hrs by broth micro-dilution method; assay type: functional; details: not given

Structure (SMILES)	MIC
C=C[C@]1(C)C[C@@H](OC(=O)CS[C@@H]2CC[C@@H](N)C[C@H]2O)[C@]2(C)[C@H](C)CC[C@]3(CCC(=O)[C@H]32)[C@@H](C)[C@@H]1O [LEFAMULIN]	0.12 µg/mL (≈ 0.236 µM)
C=C[C@]1(C)C[C@@H](OC(=O)CS[C@@H]2C[C@H]3CC[C@@H](C2)N3C)[C@]2(C)[C@H](C)CC[C@]3(CCC(=O)[C@H]32)[C@@H](C)[C@@H]1O [RETAPAMULIN]	0.25 µg/mL (≈ 0.483 µM)
C=C[C@]1(C)C[C@@H](OC(=O)CSCCN(CC)CC)[C@]2(C)[C@H](C)CC[C@]3(CCC(=O)[C@H]32)[C@@H](C)[C@@H]1O [TIAMULIN]	0.25 µg/mL (≈ 0.506 µM)
C=C[C@]1(C)C[C@@H](OC(=O)CSC(C)(C)CNC(=O)[C@H](N)C(C)C)[C@]2(C)[C@H](C)CC[C@]3(CCC(=O)[C@H]32)[C@@H](C)[C@@H]1O [VALNEMULIN]	0.06 µg/mL (≈ 0.106 µM)

test system: Staphylococcus aureus; test: Antibacterial activity against Staphylococcus aureus assessed as reduction in bacterial growth; assay type: functional; details: not given

MIC	Structure (SMILES)
0.12 µg/mL (≈ 0.319 µM)	Cn1cc(-c2ccc(Cn3cnc4c(N5CCNCC5)ncnc43)nc2)nn1
16.6 µg/mL (≈ 54.3 µM)	Cn1cc(-c2ccc(Cn3cnc4c(N)ncnc43)cc2)nn1
0.25 µg/mL (≈ 0.666 µM)	Cn1cc(-c2ccc(Cn3cnc4c(N5CCNCC5)ncnc43)cc2)nn1

test system: not listed separately; test: Solubility of compound; assay type: physicochemical; details: not given

solubility	Structure (SMILES)
114 µM (≈ 42.9 µg/mL)	Cn1cc(-c2ccc(Cn3cnc4c(N5CCNCC5)ncnc43)nc2)nn1
31 µM (≈ 11.6 µg/mL)	Cn1cc(-c2ccc(Cn3cnc4c(N5CCNCC5)ncnc43)cc2)nn1

test system: Staphylococcus aureus; test: Antibacterial activity against […] Staphylococcus aureus ATCC 29213 assessed as reduction in bacterial growth incubated for 16 to 18 hrs by CLSI protocol based Muller Hinton broth assay; assay type: functional; details: time 16-18 hrs

Structure (SMILES)	MIC
CC[C@H]1C[C@@H](OC(=O)CS[C@@H]2CC[C@@H](N)C[C@H]2O)[C@]2(C)[C@H](C)C[C@]3(CCC(=O)[C@H]32)[C@@H](C)[C@@H]1O	> 16 µg/mL
C[C@@H]1[C@@H](O)[C@H](C)[C@]23CCC(=O)[C@H]2[C@@](C)([C@H](C)CC3)[C@@H]1OC(=O)CS[C@@H]1CC[C@@H](N)C[C@H]1O	> 32 µg/mL
CC[C@@]1(C)C[C@@H](OC(=O)CSc2ccncc2)[C@]2(C)[C@H](C)CC[C@]3(CCC(=O)[C@H]32)[C@@H](C)[C@@H]1O	0.06 µg/mL (≈ 0.127 µM)
C[C@@H]1CC[C@@]23CCC(=O)[C@H]2[C@]1(C)[C@H](OC(=O)CSc1ccncc1)CC(=O)[C@@H](O)[C@@H]3C	> 16 µg/mL

test system: HepG2; test: Cytotoxicity against human HepG2 cells assessed as reduction in cell viability by measuring lethal concentration by SRB assay; assay type: functional; details: read-out: LC50 (the source's name)

Structure (SMILES)	CC50
OCc1ccc2cc(-c3ccc(O)c(C45CC6CC(CC(C6)C4)C5)c3)ccc2c1	> 32 µg/mL
O=C(O)c1ccc2cc(-c3ccc(O)c(C45CC6CC(CC(C6)C4)C5)c3)ccc2c1 [O-DEMETHYLATED ADAPALENE]	5 µg/mL (≈ 12.5 µM)

test system: Staphylococcus aureus; test: Antibacterial activity against methicillin-resistant Staphylococcus aureus ATCC 43300 assessed as reduction in bacterial growth incubated for 18 hrs by mueller hinton broth dilution method; assay type: functional; details: not given

Structure (SMILES)	MIC
CC[N+](CC)=c1sc2c(s1)C(c1ccc(Cl)cc1)Oc1ccc(C)cc1-2.F[B-](F)(F)F (configuration not stated)	3.9 µg/mL
OCc1ccc2cc(-c3ccc(O)c(C45CC6CC(CC(C6)C4)C5)c3)ccc2c1	2 µg/mL (≈ 5.2 µM)
CC[N+](CC)=c1sc2c(s1)C(c1ccc(Br)cc1)Oc1ccc(C)cc1-2.F[B-](F)(F)F (configuration not stated)	1.95 µg/mL
CC[N+](CC)=c1sc2c(s1)C(c1ccc(F)cc1)Oc1ccc(C)cc1-2.F[B-](F)(F)F (configuration not stated)	16.6 µg/mL
O=C(O)/C=C/c1ccc(-c2ccc(O)c(C34CC5CC(CC(C5)C3)C4)c2)cc1 [ADAROTENE]	2 µg/mL (≈ 5.34 µM)
O=C(O)c1ccc2cc(-c3ccc(O)c(C45CC6CC(CC(C6)C4)C5)c3)ccc2c1 [O-DEMETHYLATED ADAPALENE]	1 µg/mL (≈ 2.51 µM)

test system: Staphylococcus aureus; test: Antibacterial activity against methicllin-resistant Staphylococcus aureus; assay type: functional; details: not given

Structure (SMILES)	MIC
CCCn1c2ccccc2c2c(OCC(O)CCC=C(C)C)cccc21 (configuration not stated)	50 µg/mL (≈ 142 µM)
CC(C)=CCCC(O)COc1cccc2c1c1ccccc1n2C (configuration not stated)	> 50 µg/mL
CCCCCn1c2ccccc2c2c(OCC(O)CCC=C(C)C)cccc21 (configuration not stated)	6.25 µg/mL (≈ 16.5 µM)
CC(C)=CCCC(O)COc1cccc2c1c1ccccc1n2CC=C(C)C (configuration not stated)	3.13 µg/mL (≈ 8.3 µM)
CCCCCCCn1c2ccccc2c2c(OCC(O)CCC=C(C)C)cccc21 (configuration not stated)	12.5 µg/mL (≈ 30.7 µM)
CCCCCCCCCn1c2ccccc2c2c(OCC(O)CCC=C(C)C)cccc21 (configuration not stated)	6.25 µg/mL (≈ 14.3 µM)

test system: Staphylococcus aureus; test: Antibacterial activity against methicillin-resistant Staphylococcus aureus ATCC 33591; assay type: functional; details: not given

Structure (SMILES)	MIC
CNC(=O)c1cc(Oc2ccc(NC(=O)Nc3cccc(C(F)(F)F)c3)cc2)ccn1	> 100 µM
O=C(O)c1c(Sc2ccccc2)c2cc(Cl)ccc2n1Cc1ccc(Cl)cc1	1 µM (≈ 0.428 µg/mL)
O=C(Nc1ccc2c(c1)OC(F)(F)O2)Nc1ccc(Cl)c(C(F)(F)F)c1	0.3 µM (≈ 0.118 µg/mL)
CNC(=O)c1cc(Oc2ccc(NC(=O)Nc3ccc(Cl)c(C)c3)cc2)ccn1	> 100 µM
CNC(=O)c1cc(Oc2ccc(NC(=O)Nc3ccccc3)cc2)ccn1	> 100 µM
CCC(c1ccc(O)cc1)C(CC)c1ccc(O)cc1 (configuration not stated)	16 µM (≈ 4.33 µg/mL)
Oc1c(Cl)cc(Cl)cc1Sc1cc(Cl)cc(Cl)c1O [BITHIONOL]	0.5 µM (≈ 0.178 µg/mL)
CNC(=O)c1cc(Oc2ccc(NC(=O)Nc3ccc(Cl)c(C(F)(F)F)c3)cc2)ccn1 [SORAFENIB]	3 µM (≈ 1.39 µg/mL)

test system: Staphylococcus aureus; test: Antibacterial activity against methicillin-resistant Staphylococcus aureus ATCC 33591 assessed as inhibition of bacterial growth incubated for 24 hrs by Mueller-Hinton broth assay; assay type: functional; details: not given

Structure (SMILES)	MIC
C=CCc1ccc(O)c(-c2ccc(O)c(CC=C)c2)c1 [HONOKIOL]	10 µg/mL (≈ 37.5 µM)
C=CCc1ccc(O)c(-c2cc(CC=C)ccc2O)c1 [MAGNOLOL]	20 µg/mL (≈ 75.1 µM)
